# Measured values: patent US12559464B2, “Quinazolinone dione compounds and uses thereof” (Edgewise Therapeutics, Inc., priority 2023, dated 2026)
# Experiments:
# [1] = target: T1, myosin ATPase, Porcine Ventricle myofibrils (Sus scrofa, UniProt P79293); assay: Myofibril ATPase assay, porcine ventricle myofibrils; assay type: biochemical, porcine (Yucatan minipigs); settings: concentration required to reduce myosin ATP-ase activity by 25%; Porcine Ventricle Prep pCa 25 GEOM_MEAN
# T1 construct: Myofibrils from porcine cardiac muscle was isolated from the left ventricle of Yucatan minipigs; tissue Exemplar Genetics; host or cells: left ventricle of Yucatan minipigs, myofibrils
# T1 sequence (P79293 whole entry): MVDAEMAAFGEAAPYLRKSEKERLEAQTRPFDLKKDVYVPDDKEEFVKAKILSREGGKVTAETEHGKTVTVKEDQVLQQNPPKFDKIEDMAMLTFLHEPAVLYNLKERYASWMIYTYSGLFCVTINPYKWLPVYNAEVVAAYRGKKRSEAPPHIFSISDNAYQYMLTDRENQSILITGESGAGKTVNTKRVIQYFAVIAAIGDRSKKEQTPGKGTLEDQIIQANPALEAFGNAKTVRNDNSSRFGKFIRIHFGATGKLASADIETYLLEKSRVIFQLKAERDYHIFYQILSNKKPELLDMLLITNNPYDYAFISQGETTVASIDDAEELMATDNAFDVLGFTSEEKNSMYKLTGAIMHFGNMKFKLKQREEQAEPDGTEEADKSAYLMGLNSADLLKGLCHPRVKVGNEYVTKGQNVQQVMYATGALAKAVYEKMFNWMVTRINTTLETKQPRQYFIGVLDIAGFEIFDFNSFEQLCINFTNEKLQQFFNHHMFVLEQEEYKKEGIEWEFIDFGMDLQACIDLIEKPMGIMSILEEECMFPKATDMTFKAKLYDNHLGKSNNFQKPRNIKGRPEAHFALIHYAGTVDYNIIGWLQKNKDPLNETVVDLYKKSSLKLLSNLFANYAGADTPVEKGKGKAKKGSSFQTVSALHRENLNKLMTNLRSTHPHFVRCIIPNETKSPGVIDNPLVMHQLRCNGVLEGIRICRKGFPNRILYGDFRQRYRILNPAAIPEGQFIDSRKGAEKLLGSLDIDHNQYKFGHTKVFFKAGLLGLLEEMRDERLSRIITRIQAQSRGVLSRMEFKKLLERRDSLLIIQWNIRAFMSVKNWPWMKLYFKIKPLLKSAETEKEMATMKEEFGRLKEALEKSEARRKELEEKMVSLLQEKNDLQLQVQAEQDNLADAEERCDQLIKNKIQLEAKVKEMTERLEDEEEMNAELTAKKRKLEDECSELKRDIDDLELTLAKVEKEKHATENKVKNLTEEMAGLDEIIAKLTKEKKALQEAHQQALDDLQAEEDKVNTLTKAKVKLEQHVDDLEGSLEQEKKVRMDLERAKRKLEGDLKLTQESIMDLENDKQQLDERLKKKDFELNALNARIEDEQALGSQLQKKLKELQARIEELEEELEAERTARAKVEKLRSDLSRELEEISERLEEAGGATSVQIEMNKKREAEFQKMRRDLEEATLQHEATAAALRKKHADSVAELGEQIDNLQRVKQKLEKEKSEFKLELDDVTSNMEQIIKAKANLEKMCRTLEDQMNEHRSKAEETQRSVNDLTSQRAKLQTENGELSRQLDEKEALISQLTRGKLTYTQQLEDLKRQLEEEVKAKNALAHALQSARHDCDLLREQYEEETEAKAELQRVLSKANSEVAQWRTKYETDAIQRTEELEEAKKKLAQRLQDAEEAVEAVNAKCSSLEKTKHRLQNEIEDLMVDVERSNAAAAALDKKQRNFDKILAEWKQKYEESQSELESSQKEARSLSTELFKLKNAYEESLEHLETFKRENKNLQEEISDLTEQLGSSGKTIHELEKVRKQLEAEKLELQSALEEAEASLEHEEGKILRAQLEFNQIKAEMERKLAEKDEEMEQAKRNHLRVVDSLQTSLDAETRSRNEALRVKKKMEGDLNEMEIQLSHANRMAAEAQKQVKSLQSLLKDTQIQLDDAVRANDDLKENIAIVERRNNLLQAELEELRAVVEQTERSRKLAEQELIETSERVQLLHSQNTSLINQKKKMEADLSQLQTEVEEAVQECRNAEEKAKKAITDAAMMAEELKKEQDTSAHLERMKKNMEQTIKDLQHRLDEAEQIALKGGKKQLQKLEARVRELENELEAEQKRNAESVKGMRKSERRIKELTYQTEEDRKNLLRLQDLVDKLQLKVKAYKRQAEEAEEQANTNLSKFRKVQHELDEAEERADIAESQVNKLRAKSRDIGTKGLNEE
# Protocol: (§1) Myofibril ATPase assays are known in the art to be useful in evaluating small molecules for the treatment of HCM and other cardiac indications. Myosin ATPase activity is assessed by using a coupled reaction system, in which ADP generated by the myosin ATPase function is coupled to the disappearance of NADH through the pyruvate kinase/lactate dehydrogenase (PK-LDH) system. ATPase activity produces ADP, which is used as a substrate for PK to produce pyruvate and regenerate ATP. The pyruvate is then used as a substrate by LDH to oxidize NADH to NAD+. The rate of the reaction is monitored through the time-dependent disappearance of NADH using absorbance at 340 nm, which, when the couple system is in stoichiometric excess, is directly correlated to the ATPase activity of the myosin. Inhibition of ATPase activity by the assayed compounds is indicated by a reduced rate of NADH loss, relative to vehicle-treated controls, over the experimental time window. Porcine Ventricle are the primary sources of myofibril material.
# (§2) Materials: The following stock solutions and reagents were used in the Myofibril ATPase Assay: Stock Solutions; PIPES, 200 mM and 120 mM in H2O, pH 7.0; MgCl2 in H2O, 200 mM; PM12 Buffer, 10×: 120 mM PIPES (from 200 mM stock), 20 mM MgCl2 (from 200 mM stock); PBS Buffer, 1X: 135 mM NaCl, […], 10 mM Na(PO4)2, 1.8 mM K2(PO4), pH 7.4; EGTA in H2O, 250 mM; CaCl2) in H2O, 500 mM; DTT in H2O, 1 M; BSA in H2O, 10 mg/mL; ATP in 1×PBS, 50 mM; NADH in 1X PM12 and 1 mM DTT, 26 mM; PEP in 1X PM12, 78 mM, pH 7.0.
# (§3) Stock Solutions of pCa buffer. Combine PIPES, CaCl2, and EGTA solutions with water. Adjust pH to 7.0 and bring final volume to 100 mL.
# (§4) Buffer A & Buffer B. Prepare buffers A and B according to the table below.
# (§5) Myofibril ATPase Assay Procedure: BSA, ATP, NADH, PEP, and DTT solutions were thawed at room temperature, then transferred to ice. Pellet-frozen myofibrils were transferred with approximately twice the required volume into a sufficiently large tube and capped. Myofibrils were thawed by rolling in a water bath for approximately 15 min at room temperature and cooled on ice. Buffers A and B were prepared by adjusting volumes as necessary for required number of wells and stored on ice. 0.5 μL of the compounds to be assayed were added into wells. 25 μL of Buffer A was dispensed into the wells, followed by 25 μL of Buffer B. The wells were measured for absorbance at 340 nm, using a kinetic protocol in which the wells are read every 1.5-2 min for 75 min. Assay data analysis was performed using a python script that filtered the raw data to retain those points falling between a starting and ending time and between a maximum and minimum absorbance, then used the filtered time-domain 340 nm absorbance data in each well to calculate a slope via linear regression analysis in units of mAU/min. Compound slopes were normalized between 100% and 0% activity, where 100% represented the slope of wells containing only compound vehicle, and fit to a 4-parameter logistic model. In addition to the fit parameters, the EC25% values were calculated, relative to the 100% normalized value. Additionally, the Y125 values were calculated for compounds that increased myosin ATP-ase activity. Fit parameters, calculated effective concentrations, filtered raw data, and calculated slopes were exported, in addition to compound-specific graphs of normalized ATPase activity versus concentration in μM. Each value reported in Table 8 is either a Y75 value or a Y125 value. Values without pound sign, #, are Y75 values, which reflect the concentration required to reduce myosin ATP-ase activity by 25% (e.g., Y-axis activity value is 75% of initial value), relative to myosin ATP-ase activity in the absence of exogenous compound. […]
# [2] = system: myosin ATPase, Porcine Atria myofibrils; assay: Myofibril ATPase assay, porcine atria myofibrils; assay type: biochemical; settings: Porcine Atria Prep pCa 25 GEOM_MEAN; for Porcine Atria EC25 (Y75 value): concentration required to reduce myosin ATP-ase activity by 25%
# [3] = system: myosin ATPase, Rabbit Psoas myofibrils; assay: Myofibril ATPase assay, rabbit psoas (skeletal) myofibrils; assay type: biochemical; settings: Rabbit Psoas Prep pCa 25 GEOM_MEAN; for Rabbit Psoas EC25 (Y75 value): concentration required to reduce myosin ATP-ase activity by 25%
# Protocol: [Worded in the source for another species; this species is reported under the same test.] as §1, §2, §3, §4, §5
# [4] = concentration required to increase myosin ATP-ase activity by 25%
Porcine Ventricle EC25 (Y75 value) [1] [µM],Porcine Atria EC25 (Y75 value) [2] [µM],Rabbit Psoas EC25 (Y75 value) [3] [µM],"Porcine Atria Y125 value (marked #) [2, 4]","Rabbit Psoas Y125 value (marked #) [3, 4]",SMILES
100,100,100,–,–,"C[C@H](NC(=O)C(c1cccnc1)n1c(=O)[nH]c2ccccc2c1=O)c1ccc(F)cc1F (single isomer, unassigned) [Compound 508]"
1.04,0.19,0.40,–,–,"C[C@H](NC(=O)C1(n2c(=O)[nH]c3ccc(F)c(F)c3c2=O)CC1)c1ncc(C#N)cc1F (single isomer, unassigned) [Compound 3013]"
100,100,100,–,–,"CC(NC(=O)Cn1c(=O)[nH]c2ccccc2c1=O)c1ccco1 (centres unmarked) [Compound 604, 2-(2,4-dioxo-1,4-dihydroquinazolin-3(2H)-yl)-N-(1-(furan-2-yl)ethyl)acetamide]"
45.3,23.9,100,–,–,"CC(NC(=O)Cn1c(=O)[nH]c2ccccc2c1=O)c1cnccn1 (centres unmarked) [Compound 215, 2-(2,4-dioxo-1,4-dihydroquinazolin-3(2H)-yl)-N-(1-(pyrazin-2-yl)ethyl)acetamide]"
100,4.31,100,–,–,"C[C@@H](NC(=O)Cn1c(=O)[nH]c2ccc(C#N)cc2c1=O)c1ncc(C#N)cc1F (single isomer, unassigned) [Compound 15]"
100,100,100,–,–,"CC(C)C(C(=O)N[C@@H](C)c1ccc(F)cc1F)n1c(=O)[nH]c2ccccc2c1=O (single isomer, unassigned) [Compound 513]"
100,3.241,8.499,–,–,"COc1nccc2[nH]c(=O)n(CC(=O)N[C@@H](C)c3ccc(F)cc3F)c(=O)c12 [Compound 65, (S)-N-(1-(2,4-difluorophenyl)ethyl)-2-(5-methoxy-2,4-dioxo-1,4-dihydropyrido[4,3-d]pyrimidin-3(2H)-yl)acetamide]"
100,–,–,30.14^# μM,23.575^#^ μM,"CC(C)CC(C(=O)N[C@@H](C)c1ccc(F)cc1F)n1c(=O)[nH]c2ccccc2c1=O (single isomer, unassigned) [Compound 512]"
100,100,4.593,–,–,"C[C@@H](NC(=O)Cn1c(=O)[nH]c2cccc(F)c2c1=O)c1ncc(C#N)cc1F (single isomer, unassigned) [Compound 207]"
100,100,100,–,–,"CC[C@H](NC(=O)Cn1c(=O)[nH]c2ccccc2c1=O)c1ccc(F)cc1F (single isomer, unassigned) [Compound 49]"
7.299,3.03,4.019,–,–,"Cc1c(F)ccc2[nH]c(=O)n(CC(=O)N[C@H]3COc4cc(C#N)cnc43)c(=O)c12 (single isomer, unassigned) [Compound 702]"
100.00,5.34,–,–,–,"C[C@@H](NC(=O)Cn1c(=O)[nH]c2ccc(F)c(C#N)c2c1=O)c1ncc(C#N)cc1F (single isomer, unassigned) [Compound 3001]"
–,–,100,–,–,"C[C@H](NC(=O)Cn1c(=O)[nH]c2ccccc2c1=O)c1cccc2ccccc12 (single isomer, unassigned) [Compound 5002]"
–,–,100,–,–,"O=C(Cn1c(=O)[nH]c2ccccc2c1=O)NCc1ccncc1 [Compound 5007, 2-(2,4-dioxo-1,4-dihydroquinazolin-3(2H)-yl)-N-(pyridin-4-ylmethyl)acetamide]"
63.05,1.32,–,–,–,"Cc1ccc2[nH]c(=O)n(CC(=O)N[C@H](C)c3ncc(C#N)cc3F)c(=O)c2c1F (single isomer, unassigned) [Compound 3003]"
–,–,100,–,–,"CC(NC(=O)Cn1c(=O)[nH]c2ccccc2c1=O)C1CN(C)CCO1 (centres unmarked) [Compound 5001, 2-(2,4-dioxo-1,4-dihydroquinazolin-3(2H)-yl)-N-(1-(4-methylmorpholin-2-yl)ethyl)acetamide]"
–,–,100,–,–,"O=C(Cn1c(=O)[nH]c2ccccc2c1=O)NCc1cccnc1 [Compound 5006, 2-(2,4-dioxo-1,4-dihydroquinazolin-3(2H)-yl)-N-(pyridin-3-ylmethyl)acetamide]"
–,–,100,–,–,"O=C(Cn1c(=O)[nH]c2ccccc2c1=O)NCc1ccc(Cn2cccn2)cc1 [Compound 5004, N-(4-((1H-pyrazol-1-yl)methyl)benzyl)-2-(2,4-dioxo-1,4-dihydroquinazolin-3(2H)-yl)acetamide]"
7.022,–,0.52,–,–,"C[C@H](NC(=O)Cn1c(=O)[nH]c2ccccc2c1=O)c1ccc(F)cc1F [Compound 167, (S)-N-(1-(2,4-difluorophenyl)ethyl)-2-(2,4-dioxo-1,4-dihydroquinazolin-3(2H)-yl)acetamide]"
–,–,100,–,–,"CC(NC(=O)Cn1c(=O)[nH]c2ccccc2c1=O)C1CCCCC1 (centres unmarked) [Compound 5003, N-(1-cyclohexylethyl)-2-(2,4-dioxo-1,4-dihydroquinazolin-3(2H)-yl)acetamide]"
0.24,0.11,–,–,–,"C[C@H](NC(=O)Cn1c(=O)[nH]c2ccc(F)c(C#N)c2c1=O)c1ncc(C#N)cc1F (single isomer, unassigned) [Compound 3002]"
0.256,–,0.591,–,–,"C[C@H](NC(=O)Cn1c(=O)[nH]c2cccc(Cl)c2c1=O)c1ccc(F)cc1F [Compound 136, (S)-2-(5-chloro-2,4-dioxo-1,4-dihydroquinazolin-3(2H)-yl)-N-(1-(2,4-difluorophenyl)ethyl)acetamide]"
–,–,100,–,–,"O=C(Cn1c(=O)[nH]c2ccccc2c1=O)NCc1ccccn1 [Compound 5005, 2-(2,4-dioxo-1,4-dihydroquinazolin-3(2H)-yl)-N-(pyridin-2-ylmethyl)acetamide]"
0.51,0.18,–,–,–,"Cc1ccc2[nH]c(=O)n(CC(=O)N[C@@H](C)c3ncc(C#N)cc3F)c(=O)c2c1F (single isomer, unassigned) [Compound 3004]"
–,–,100,–,–,"O=C(Cn1c(=O)[nH]c2ccccc2c1=O)NCCc1ccccc1Cl [Compound 5008, N-(2-chlorophenethyl)-2-(2,4-dioxo-1,4-dihydroquinazolin-3(2H)-yl)acetamide]"
